# US10723711B2, “1,1,1-trifluoro-3-hydroxypropan-2-yl carbamate derivatives and 1,1,1-trifluoro-4-hydroxybutan-2-yl carbamate derivatives as MAGL inhibitors” (PFIZER INC., priority 2015, dated 2020)
# Read-outs that look alike come from different tables or passages of the source.
# What was measured:
# Format in all cases: biochemical
# [1] = target: T1, human recombinant Monoacylglycerol Lipase (Homo sapiens, UniProt Q99685); experiment: MAGL inhibition enzymatic assay, fluorogenic substrate 7-HCA, IC50 at T=0 min or after 30 minute incubation (T=30 min); conditions: geometric mean of 2-4 determinations unless otherwise indicated
# T1 sequence (Q99685 1-303): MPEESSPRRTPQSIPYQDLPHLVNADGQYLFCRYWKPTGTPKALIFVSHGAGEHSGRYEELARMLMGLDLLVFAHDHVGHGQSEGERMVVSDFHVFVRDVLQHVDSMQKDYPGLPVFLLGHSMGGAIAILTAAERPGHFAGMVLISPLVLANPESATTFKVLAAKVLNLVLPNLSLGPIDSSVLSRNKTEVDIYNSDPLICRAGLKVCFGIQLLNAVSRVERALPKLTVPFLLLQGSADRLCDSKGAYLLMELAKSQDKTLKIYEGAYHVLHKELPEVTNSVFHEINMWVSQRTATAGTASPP
# Procedure: An equal volume of 7-HCA in assay buffer with 10% DMSO was added either immediately (T=0 min) or after a 30 minute incubation (T=30 min) to initiate the reaction. […] After these dilutions, the final concentration of the test compound ranged from 3 μM to 0.03 nM. […] IC50 values were generated based on a four parameter fit model using ABASE software from IDBS.
# [2] = target: T1, human recombinant Monoacylglycerol Lipase; experiment: MAGL inactivation, enzyme progress curves, kinact/KI; conditions: from enzyme progress curves, T = 0 min protocol; geometric mean of 2-4 determinations unless otherwise indicated
# Procedure: Assessment of MAGL inhibition utilizes human recombinant Monoacylglycerol Lipase and the fluorogenic substrate 7-hydroxycoumarinyl arachidonate (7-HCA, Biomol ST-502). 400 nL of a test compound at decreasing concentration (ranging from 150 μM down to 1.5 nM) was spotted into a 384-well back plate (PerkinElmer, 6007279) using a Labcyte Echo, followed by addition of 10 μL of MAGL enzyme in assay buffer (50 mM HEPES, pH 7.4, 100 mM NaCl, 5 mM MgCl2, 0.1% Triton X-100 and 25% glycerin). An equal volume of 7-HCA in assay buffer with 10% DMSO was added either immediately (T=0 min) or after a 30 minute incubation (T=30 min) to initiate the reaction. The final concentration of MAGL enzyme was […] and 7-HCA substrate was 5 μM. After these dilutions, the final concentration of the test compound ranged from 3 μM to 0.03 nM. The reaction was allowed to progress for 60 minutes, after which the plate was read at an Ex/Em of 340/465. Percent inhibitions were calculated based on control wells containing no compound (0% inhibition) and a control compound (e.g., a MAGL inhibitor whose activity is known or was previously reported in the literature, such as one with about 100% inhibition). IC50 values were generated based on a four parameter fit model using ABASE software from IDBS. See e.g., Wang, Y. et al., “A Fluorescence-Based Assay for Monoacylglycerol Lipase Compatible with Inhibitor Screening,” Assay and Drug Development Technologies, 2008, Vol. 6 (3) pp 387-393 (reporting an assay for measuring MAGL activity).
# To measure MAGL inactivation, the same protocol for the (T=0 min) MAGL inhibition IC50 assay was performed with data collected every minute to acquire enzyme progress curves at decreasing concentrations of compound.
# human recombinant FAAH = target: T2, human recombinant FAAH (Homo sapiens, UniProt O00519); experiment: FAAH inhibition enzymatic assay, fluorescent substrate Arachidonoyl-AMC, 30 minute incubation; conditions: T = 30 min (30 minute incubation); geometric mean of 2-4 determinations unless otherwise indicated
# T2 construct: purchased Cayman 10010183
# T2 sequence (O00519 1-579): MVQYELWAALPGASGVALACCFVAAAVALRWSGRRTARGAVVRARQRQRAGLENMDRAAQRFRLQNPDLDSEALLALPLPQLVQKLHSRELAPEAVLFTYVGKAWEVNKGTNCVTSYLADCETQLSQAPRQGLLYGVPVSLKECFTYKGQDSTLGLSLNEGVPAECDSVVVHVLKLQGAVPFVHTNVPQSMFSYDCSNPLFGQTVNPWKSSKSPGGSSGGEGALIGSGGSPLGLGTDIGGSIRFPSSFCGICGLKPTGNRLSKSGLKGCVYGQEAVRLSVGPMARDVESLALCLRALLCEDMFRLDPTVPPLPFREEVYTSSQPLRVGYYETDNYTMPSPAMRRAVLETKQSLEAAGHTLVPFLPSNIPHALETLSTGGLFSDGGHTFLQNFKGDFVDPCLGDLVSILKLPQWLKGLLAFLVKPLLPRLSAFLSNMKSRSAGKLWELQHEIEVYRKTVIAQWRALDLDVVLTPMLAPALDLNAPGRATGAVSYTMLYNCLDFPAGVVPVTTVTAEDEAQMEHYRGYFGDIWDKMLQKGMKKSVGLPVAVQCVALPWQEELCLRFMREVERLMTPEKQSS
# Procedure: Assessment of FAAH inhibition utilizes human recombinant FAAH and the fluorescent substrate, Arachidonoyl-AMC. 400 nL of a test compound at decreasing concentrations was spotted into a 384-well back plate (PerkinElmer, 6007279) using a Labcyte Echo, followed by addition of 10 μl of FAAH enzyme (Cayman 10010183) in assay buffer (50 mM Tris, pH 9.0, 1 mM EDTA). After a 30 minute incubation at room temperature, 10 μL of Arachidonyl-AMCA was added in assay buffer with 16% DMSO. Final concentration of FAAH enzyme was 0.0125 Units and AAMCA substrate was used at the Km of 5 μM. […] The reaction was allowed to progress for 60 minutes, after which the plate was read on a Molecular Devices FlexStation reader at an Ex/Em of 355/460. Percent inhibitions were calculated based on controls wells containing either no compound (0% inhibition) or a control compound (e.g., an FAAH inhibitor whose activity is known or was previously reported in the literature, such as one with about 100% inhibition). IC50 values were generated based on a four parameter fit model using ABASE software from IDBS.
# [3] = T = 0 min (substrate added immediately), read-out: MAGL (T = 0 min) IC50
# [4] = T = 30 min (30 minute incubation), read-out: MAGL (T = 30 min) IC50
SMILES,"IC50 [1, 3] [nM]","IC50 [1, 4] [nM]",MAGL kinact/KI [2],IC50 (human recombinant FAAH) [nM]
"O=C(O[C@H](CO)C(F)(F)F)N1CCC2(CC1)CC(N1Cc3ccccc3S1(=O)=O)CO2 (mixture of isomers) [Example 101, (2R)-1,1,1-trifluoro-3-hydroxypropan-2-yl 3-(1,1-dioxido-1,2-benzothiazol-2(3H)-yl)-1-oxa-8-azaspiro[4.5]decane-8-carboxylate]",180,21,2454 1/s per M,6540
"Cc1ccc(CC2COC3(CCN(C(=O)O[C@H](CO)C(F)(F)F)CC3)C2)nc1 (mixture of isomers) [Example 102, (2R)-1,1,1-Trifluoro-3-hydroxypropan-2-yl 3-[(5-methylpyridin-2-yl)methyl]-1-oxa-8-azaspiro[4.5]decane-8-carboxylate]",215,26,1336 1/s per M,18300
CN(C1COC2(CCN(C(=O)O[C@H](CO)C(F)(F)F)CC2)C1)S(=O)(=O)C1CCCC1 (mixture of isomers) [Example 112],64,7,14232 1/s per M,> 30000
CN(C1COC2(CCN(C(=O)O[C@H](CO)C(F)(F)F)CC2)C1)S(=O)(=O)C1CCC1 (mixture of isomers) [Example 113],139,10,6254 1/s per M,> 25500
CN(C1COC2(CCN(C(=O)O[C@H](CO)C(F)(F)F)CC2)C1)S(=O)(=O)c1cccnc1 (mixture of isomers) [Example 114],163,15,6263 1/s per M,> 30000
CN(C1COC2(CCN(C(=O)O[C@H](CO)C(F)(F)F)CC2)C1)S(=O)(=O)c1cncnc1 (mixture of isomers) [Example 115],341,27,2917 1/s per M,> 30000
O=C(O[C@H](CO)C(F)(F)F)N1CCC2(CC1)CC(c1cccc(OC(F)(F)F)c1)CO2 (mixture of isomers) [Example 118],2,0.4,172844 1/s per M,> 24800
O=C(O[C@H](CO)C(F)(F)F)N1CCC2(CC1)CC(c1cccc(Cl)c1)CO2 (mixture of isomers) [Example 119],32,3,23176 1/s per M,3570
O=C(O[C@H](CO)C(F)(F)F)N1CCC2(CC1)CC(c1ccc(F)nc1)CO2 (mixture of isomers) [Example 120],166,21,1516 1/s per M,> 30000
COc1ccc(C2COC3(CCN(C(=O)O[C@H](CO)C(F)(F)F)CC3)C2)nc1 (mixture of isomers) [Example 121],149,20,1207 1/s per M,14700
O=C(O[C@H](CO)C(F)(F)F)N1CCC2(CC1)CC(N1CCc3ccccc3S1(=O)=O)CO2 (mixture of isomers) [Example 131],86,11,4241 1/s per M,17400
N#Cc1cccc(C2COC3(CCN(C(=O)O[C@H](CO)C(F)(F)F)CC3)C2)c1 (mixture of isomers) [Example 147],60,6,5973 1/s per M,> 26400
"O=C(OC(C(F)(F)F)C(F)(F)CO)N1CCC2(CC1)CN(S(=O)(=O)c1ccc(F)cc1)CCO2 (racemic) [Example 19, 1,1,1,3,3-Pentafluoro-4-hydroxybutan-2-yl 4-[(4-fluorophenyl)sulfonyl]-1-oxa-4,9-diazaspiro[5.5]undecane-9-carboxylate]",95,8,2397 1/s per M,> 30000
O=C(O[C@@H]([C@@H](O)C(F)(F)F)C(F)(F)F)N1C[C@@H]2[C@H](C1)[C@H]2c1ccn(-c2ccc(F)cc2)n1 (racemic) [Example 36],132,12,3736 1/s per M,13200
"CC(c1ccc(F)cc1)N1CCOC2(CCN(C(=O)O[C@H](CO)C(F)(F)F)CC2)C1 (single isomer, unassigned) [Example 44]",179,17,3701 1/s per M,> 30000
"CC(c1ccc(F)cc1)N1CCOC2(CCN(C(=O)O[C@H](CO)C(F)(F)F)CC2)C1 (single isomer, unassigned) [Example 45]",191,18,3134 1/s per M,> 30000
"O=C(O[C@H](CO)C(F)(F)F)N1CCC2(CC1)CC(c1ccccc1)CO2 (single isomer, unassigned) [Example 95]",16,1,131495 1/s per M,8720
"O=C(O[C@H](CO)C(F)(F)F)N1CCC2(CC1)CC(c1ccccc1)CO2 (single isomer, unassigned) [Example 96]",62,5,18560 1/s per M,9520
"CN(C(=O)c1ccccc1)C1COC2(CCN(C(=O)O[C@H](CO)C(F)(F)F)CC2)C1 (single isomer, unassigned) [Example 99]",107,11,16883 1/s per M,> 30000
"CN(C(=O)c1ccccc1)C1COC2(CCN(C(=O)O[C@H](CO)C(F)(F)F)CC2)C1 (single isomer, unassigned) [Example 100]",86,10,5664 1/s per M,> 28700
"CN(C1COC2(CCN(C(=O)O[C@H](CO)C(F)(F)F)CC2)C1)S(=O)(=O)c1cccc(F)c1 (single isomer, unassigned) [Example 108]",51,3,15960 1/s per M,10700
